One assay has as its target BRD4 (Homo sapiens (Human), UniProt O60885). Description: BRD4 c-myc ELISA assay in 22RV-1 cells. Format: cell-based. The conditions noted are these: 18 hrs, 300 nM-0.3 nM. As for the experimental part: 22RV-1 cells were seeded at 30,000 cells/well at a volume of 75 μL/well in RPMI+10% FBS media in 96-well plates and grown overnight at 37 C. Cells were dosed with compounds at 4× concentration diluted in 0.4% DMSO; compounds were serially diluted 1:3 for 8-point dose curve. 25 ul of compound was added to cells for a final concentration starting at 300 nM-0.3 nM in 0.1% DMSO and incubated for 18 hrs. Media was aspirated, cells washed 1× with PBS and aspirated. Cells were lysed in 50 ul RIPA buffer (50 mM Tris pH8, 150 mM NaCl, 1% Tx-100, 0.1% SDS, 0.5% sodium deoxycholate) supplemented with protease and phosphatase inhibitors. Plates were incubated on ice for 15 minutes then centrifuged at 4° C. for 10 min at 4000 rpm. Added 50 ul of cleared lysate from 96-well assay plate into 96-well c-myc ELISA plate (Novex, Life Technologies Catalog #KH02041). […] The rest of the assay was performed following the protocol from the c-myc ELISA kit. Data was analyzed and plotted using GraphPad Prism software.

The target in a further assay is VHL (Homo sapiens (Human), UniProt P40337). Description: VHL fluorescence polarization (FP) competition assay. It is filed as binding.
A further assay has as its system Androgen Receptor. Description: Androgen receptor ELISA assay (AR degradation) in LNCaP and/or VCaP cells. Format: cell-based. The conditions noted are these: AR PROTACs; 24 h incubation. How it is done:
Compounds have been evaluated in this assay in LNCaP and/or VCaP cells utilizing similar protocols. The protocols used with VCaP cells are described below. The androgen receptor ELISA assay was performed using PathScan AR ELISA (Cell Signaling Catalog #128501 according to the following assay steps:
VCaP cells are seeded at 30,000 cells/well at a volume of 200 μL/well in VCaP assay medium [Phenol red free RPMI (Gibco Cat #11835-030); 5% Charcoal Stripped (Dextran treated) FBS (Omega Scientific, Cat #FB-04); Pen/Strep Life Technologies (Gibco Cat #: 10378-016); 0. 1 nM R1881 (Sigma, Cat #R0908) is added upon the start of the assay, not during initial plating of the cells) in Corning 3904 plates. The cells are grown for a minimum of 3 days.
(2)(i) Make 10× stock plate in media; (ii) transfer 2.5 μL of the 1000× stock to a new 10× stock plate (use 12 channel pipet, start at A (DMSO control) work thru H. When 247.5 μL of media is added to this plate, it will serve as a 10× stock; (iii) make media+1 nM R1881 for making 10× stock plate; (iv) add 247.5 μL of media with 1 nM R1881 to each well of the 10× stock plate, mix.
Then 22 μL of 10× stock is added to cells and incubated for 24 h. 1× Cell Signaling Cell lysis buffer is made (Catalogue #9803; comes with the kit)—prepare for 50 μL/well. Keep on ice. Media is aspirated, and 50 μL 1× cell lysis buffer/well is added. The cells are placed on ice for 10 minutes. The solution is mixed and transferred to PCR plate, and centrifuged at 4 C for 10 minutes at 4000 rpm. […]
Add 100 μL/well AR Elisa; cover and shake, 37 C for 2 hrs; dump, tap, wash 4× 200 μL ELISA wash buffer; add 100 μL/well mouse AR detection Ab; cover and shake, 37 C for 1 hr; dump, tap, wash 4× 200 μL ELISA wash buffer; add 100 μL/well anti-mouse—HRP conjugated Ab (comes with the kit); cover and shake, 37 C for 30 min; allow TMB reagent to come to RT; dump, tap, wash 4× 200 μL Elisa wash buffer; tap; add 100 μL TMB, shake 5 min—while watching color. […] Add 100 μL Stop solution; shake and read at 450 nm. […]

As to `Cc1ncsc1-c1ccc([C@H](C)NC(=O)[C@@H]2C[C@@H](O)CN2C(=O)[C@H](C(C)C)n2cc(-c3ccnc(N4CC[C@H](NC(=O)C[C@@H]5N=C(c6ccc(Cl)cc6)c6c(sc(C)c6C)-n6c(C)nnc65)C4)c3)cn2)cc1`, the “cMyc Imax” value on BRD4 is reported as “++++ (71%≤Imax)”.

For `Cc1ncsc1-c1ccc(CNC(=O)[C@@H]2C[C@@H](O)CN2C(=O)[C@@H](NC(=O)C2CCN(C)CC2)C(C)(C)C)cc1` [Example 75, N—((S)-1-((2S,4R)-4-hydroxy-2-(4-(4-methylthiazol-5-yl)benzylcarbamoyl)pyrrolidin-1-yl)-3,3-dimethyl-1-oxobutan-2-yl)-1-methylpiperidine-4-carboxamide], the IC50 at VHL (1% in DMSO) stood at 13.7 µM; on VHL (10% in DMSO), 9.29 µM.

Turning to `Cc1ncsc1-c1ccc(CNC(=O)[C@@H]2C[C@@H](O)CN2C(=O)[C@@H](NC(=O)c2ccccc2C#N)C(C)(C)C)cc1` [Example 70, (2S,4R)-1-((S)-2-(2-cyanobenzamido)-3,3-dimethylbutanoyl)-4-hydroxy-N-(4-(4-methylthiazol-5-yl)benzyl)pyrrolidine-2-carboxamide], the values for the IC50 on VHL (1% in DMSO) and on VHL (10% in DMSO) were 2.02 µM and 1.2 µM, respectively.

Take `CSC[C@H](NC(=O)CCC(C)C)C(=O)N1C[C@H](O)C[C@H]1C(=O)NCc1ccc(-c2scnc2C)cc1` [Example 22, (2S,4R)-4-hydroxy-1-((R)-2-(4-methylpentanamido)-3-(methylthio)propanoyl)-N-(4-(4-methylthiazol-5-yl)benzyl)pyrrolidine-2-carboxamide]: the IC50 worked out at 6.25 µM on VHL (1% in DMSO) and 8.29 µM at VHL (10% in DMSO).

On to `Cc1ncsc1-c1ccc([C@H](C)NC(=O)[C@@H]2C[C@@H](O)CN2C(=O)[C@H](C(C)C)n2cc(-c3ccnc(O[C@H]4C[C@H](NC(=O)C[C@@H]5N=C(c6ccc(Cl)cc6)c6c(sc(C)c6C)-n6c(C)nnc65)C4)c3)cn2)cc1`, for which the “cMyc Imax” value on BRD4 was “++++ (71%≤Imax)”.

On to `Cc1ncsc1-c1ccc(CNC(=O)C2(C)C[C@@H](O)CN2C(=O)[C@H](C(C)C)N2Cc3ccccc3C2=O)cc1` (single isomer, unassigned) [Example 128], for which, on VHL (1% in DMSO), the 50% inhibitory concentration (IC50) was over 100 µM.

On to `Cc1ncsc1-c1ccc([C@H](C)NC(=O)[C@@H]2C[C@@H](O)CN2C(=O)[C@@H](n2cc(-c3ccnc(O[C@H]4C[C@@H](NC(=O)C[C@@H]5N=C(c6ccc(Cl)cc6)c6c(sc(C)c6C)-n6c(C)nnc65)C4)c3)cn2)C(C)(C)C)cc1`, for which the “cMyc Imax” value at BRD4 is “++++ (71%≤Imax)”.

Take `Cc1ncsc1-c1ccc(CNC(=O)[C@@H]2C[C@@H](O)CN2C(=O)C(C(C)C)n2cc(OC3CCN(c4ccc(-c5ccc(N6C(=S)N(c7ccc(C#N)c(C(F)(F)F)c7)C(=O)C6(C)C)cc5)cn4)CC3)cn2)cc1` (stereo partly shown): the “Dmax (highest percentage of Androgen Receptor degradation observed)” value with Androgen Receptor is “++ (26%≤Dmax≤50%)”.

With `Cc1ncsc1-c1ccc([C@H](C)NC(=O)[C@@H]2C[C@@H](O)CN2C(=O)[C@H](C(C)C)n2cc(-c3ccnc(N4CC[C@@H](Nc5ccc(C(=O)N[C@H]6C(C)(C)[C@H](Oc7ccc(C#N)c(Cl)c7)C6(C)C)cc5)C4)c3)cn2)cc1`, the “Dmax (highest percentage of Androgen Receptor degradation observed)” value in the assay on Androgen Receptor is “++ (26%≤Dmax≤50%)”.

Consider `Cc1ncsc1-c1ccc([C@H](C)NC(=O)[C@@H]2C[C@@H](O)CN2C(=O)[C@H](C(C)C)n2cc(OCCCOCCC(O)CCOc3ccc(N4C(=S)N(c5ccc(C#N)c(C(F)(F)F)c5)C(=O)C4(C)C)cc3)cn2)cc1` (stereo partly shown), for which the “Dmax (highest percentage of Androgen Receptor degradation observed)” value in the assay on Androgen Receptor is listed as “+++ (51%≤Dmax≤70%)”.

For the compound `Cc1ncsc1-c1ccc(CNC(=O)[C@@H]2C[C@@H](O)CN2C(=O)[C@H](C(C)C)n2cc(-c3cccc(O[C@H](C)CNC(=O)C[C@@H]4N=C(c5ccc(Cl)cc5)c5c(sc(C)c5C)-n5c(C)nnc54)c3)cn2)cc1`, the “cMyc Imax” value at BRD4 is “++++ (71%≤Imax)”.

Turning to `Cc1ncsc1-c1ccc(CNC(=S)[C@@H]2C[C@@H](O)CN2C(=O)[C@H](C(C)C)N2Cc3ccccc3C2=O)cc1` [Example 110, (2S,4R)-4-hydroxy-1-((S)-3-methyl-2-(1-oxoisoindolin-2-yl)butanoyl)-N-(4-(4-methylthiazol-5-yl)benzyl)pyrrolidine-2-carbothioamide], the IC50 at VHL (1% in DMSO) came out at 21.6 µM.

On VHL (1% in DMSO), `Cc1ncsc1-c1ccc(CNC(=O)C2(C)C[C@@H](O)CN2C(=O)[C@H](C(C)C)N2Cc3ccccc3C2=O)cc1` (single isomer, unassigned) [Example 129] showed an IC50 of 19.3 µM.

For the origin of these results see US11512083B2, “Compounds and methods for the enhanced degradation of targeted proteins” (Arvinas Operations, Inc., priority 2015, dated 2022).
